“Also recorded” adds a separate entry of the source. Read-outs that look alike come from different tables or passages of the source.
What was measured:
[1] = tested on: A2780 cells; details: for type of TTFields-drug interaction (measured vs calculated additive curve): HRP cells; for effect of TTFields on the drug-induced overall effect (cell count x colony formation) / effect of TTFields on the drug-induced effect, cell count: TTFields plus drug vs drug alone; for effect of TTFields on the drug-induced effect, cell count: p<0.0001
Method: (§1) Cells were seeded on coverslip (22 mm diameter; 20×10^3 cells/coverslip for A2780 and A2780cis; 40×10^3 cells/coverslip for OVCAR-3). After overnight incubation, the coverslips were transferred into in vitro dishes containing 2 ml of media. TTFields at a frequency of 200 kHz (and intensity of 1 V/cm RMS) were applied to the cells for 72 hr using the INOVITRO system (Novocure, Haifa, Israel).
(§2) For efficacy outcomes (cell count, overall effect, and apoptosis), various concentrations of carboplatin (MCE MedChemExpress, HY-17393), olaparib (Cayman Chemical, 10621), or niraparib (Cayman Chemical, 20842) were applied, with or without TTFields.
(§3) Cell count was examined following treatment using Cytek Northern Lights flow cytometer (Cytek Biosciences, USA).
(§4) Treated cells were harvested, re-plated in 6-well plates (500 cells/well for A2780 and A2780cis; 1000 for cells/well OVCAR-3), and grown for 7 (A2780 and A2780cis) or 21 (OVCAR-3) days. Colonies were stained with 0.5% crystal violet, quantified with ImageJ, and expressed as percentages relative to control. Overall effect was calculated by multiplying colony formation with the corresponding cell count.
(§5) The surviving fraction predicted for an additive effect between TTFields and drug was calculated per the various drug concentrations by multiplying the actual measured surviving fractions for the individual treatments one by the other (SFcalculated additive=SFTTFields×SFdrug; SF are expressed as probability). Based on the calculated values, a trendline was determined. Additivity, synergy, or antagonism was defined when the calculated additive trendline overlapped, was above, or was below the actual measured line for TTFields+drug, respectively.
(§6) For quantifying the magnitude of TTFields-drug interaction, interaction index (Ii) values were calculated by the Bliss independence method using mortality values (Mx=1−SFx). Per the various drug concentrations, mortality predicted for an additive effect between TTFields and drug (Mcalculated additive=MTTFields+Mdrug−MTTFields×Mdrug) was divided by the actual measured mortality for TTFields+drug. Additivity was determined when the 95% confidence interval (CI) overlapped 1, synergy when 95% CI<1, and antagonism when 95% CI>1. Lower Ii values were considered indicative of higher synergy levels.

[2] = tested on: OVCAR-3 cells; details: for effect of TTFields on the drug-induced overall effect (cell count x colony formation) / effect of TTFields on the drug-induced effect, cell count: TTFields plus drug vs drug alone; for effect of TTFields on the drug-induced effect, cell count: p<0.0001; for sensitivity to drug (cell count dose response): drug alone, compared among A2780, OVCAR-3, A2780cis
Method: as §1, §2, §3, §4, §5, §6

[3] = tested on: A2780cis cells; test: Cell count and overall effect (cell count x colony formation) after 72 h drug with or without TTFields; assay type: cell-based, human; details: for effect of TTFields on the drug-induced overall effect (cell count x colony formation) / effect of TTFields on the drug-induced effect, cell count: TTFields plus drug vs drug alone; for effect of TTFields on the drug-induced effect, cell count: p<0.0001; for sensitivity to drug (cell count dose response) / effect of TTFields on sensitivity to / effect of the drug / type of TTFields-drug interaction (measured vs calculated additive curve): 72 h; for sensitivity to drug (cell count dose response): compared among A2780, OVCAR-3, A2780cis; for effect of TTFields on sensitivity to / effect of the drug: platinum-resistant cell line; for effect of TTFields on sensitivity to / effect of the drug / type of TTFields-drug interaction (measured vs calculated additive curve): TTFields 200 kHz, 1 V/cm RMS; for type of TTFields-drug interaction (measured vs calculated additive curve): platinum-resistant cells
Method: (§7) TTFields were applied to the cells for 72 h in the absence or presence of various concentrations of carboplatin. Synergy was defined when the observed value was lower than that predicted for an additive effect (presented by the red dotted line-calculated by multiplying the observed effects for TTFields alone with that for cisplatin alone).
The Cytotoxic effect was also determined. Treated cells were counted using a flow cytometer, and cytotoxic effect was calculated relative to control cells.
Treated cells were harvested, re-plated, and grown for an additional 7-14 days. Colonies were stained (0.5% crystal violet solution), counted, and clonogenic effect was calculated relative to control. The overall effect was calculated by multiplying the cytotoxic and clonogenic effects.
TTFields application was studied. Ovarian carcinoma cells A2780cis (cisplatin resistant cells) were treated for 72 h with TTFields at an intensity of 1 V/cm RMS and a frequency of 200 kHz using the inovitro system (See FIG. 11).
as §7, with “PARPi Olaparib and Niraparib.” for “carboplatin.”
The cytotoxic effect was studied. Treated cells were counted using a flow cytometer, and cytotoxic effect was calculated relative to control cells.
Treated cells were harvested, re-plated, and grown for an additional 7-14 days. Colonies were stained (0.5% crystal violet solution), counted, and clonogenic effect was calculated relative to control. Overall effect was calculated by multiplying the cytotoxic and clonogenic effects.
as §1, §2, §3, §4, §5
For quantifying the magnitude of TTFields-drug interaction, interaction index (Ii) values were calculated by the Bliss independence method using mortality values (Mx=1−SFx). Per the various drug concentrations, mortality predicted for an additive effect between TTFields and drug (Mcalculated additive=MTTFields+Mdrug−MTTFields×Mdrug) was divided by the actual measured mortality for TTFields+drug.

[4] = tested on: A2780 cells; test: Apoptosis, Annexin V/7-AAD staining, flow cytometer; assay type: cell-based, human; details: TTFields applied with drug
Method: (§8) Apoptosis: Treated cells were double-stained with FITC-conjugated annexin V (AnnV) and 7-aminoactinomycin D (7AAD), and data acquisition was performed with a flow cytometer.
(§9) Apoptosis was also examined. Treated cells were double-stained with FITC-conjugated annexin V (AnnV) and 7-aminoactinomycin D (7AAD), and data acquisition was performed with a flow cytometer.
(§10) Treated cells were stained with FITC-conjugated Annexin V (AnnV) and 7-Aminoactinomycin D (7-AAD) using a commercial kit (BioLegend, San Diego, CA, USA), according to the manufacturer's instruction. Data acquisition and analysis were done on the Cytek Northern Lights flow cytometer

[5] = tested on: OVCAR-3 cells; test: as above; assay type: cell-based, human; details: TTFields applied with drug
Method: as §8, §10

[6] = tested on: A2780cis cells; test: as above; assay type: cell-based, human; details: TTFields applied with drug
Method: as §9
Treated cells were double-stained with FITC-conjugated annexin V (AnnV) and 7-aminoactinomycin D (7AAD), and data acquisition was performed with a flow cytometer.
as §10

[7] = tested on: γH2AX foci in cell nuclei; test: DNA damage examination by fluorescence microscopy; assay type: cell-based, human
Method: For DNA damage and cell cycle examination, the following drug concentrations were selected: For A2780—6 μM carboplatin, 1 μM olaparib, and 0.5 μM niraparib; For OVCAR-3-16 μM carboplatin, 0.5 μM olaparib, and 0.8 μM niraparib; For A2780cis—36 μM carboplatin, 10 μM olaparib, and 1.5 μM niraparib. Treated cells were fixed with 4% paraformaldehyde for 10 min, permeabilized for 20 min with 0.5% Triton X-100 in PBS, and blocked with donkey serum (PBS with 0.3% Triton X-100 and donkey serum 1:100). Cells were incubated at 4° C. overnight with anti-γH2AX antibody (Cell Signaling, Danvers, MA, USA; #9718, 1:400), followed by incubation at room temperature for 1 hr with Alexa Flour 488-conjugated secondary antibody (Jackson Immunoresearch, Cambridge, UK; #711-545-152, 1:500) and […] 4′,6-diamidino-2-phenylindole (DAPI; Sigma Aldrich, Rehovot, Israel). LSM 700 laser scanning confocal system (Zeiss, Gottingen, Germany) was utilized to obtain images, and the mean number of foci per nucleus was determined using the FIJI software with the BioVoxxel plugin.

[8] = tested on: G2/M cell cycle arrest; test: Cell cycle analysis (7-AAD, flow cytometer); assay type: cell-based, human
Method: For DNA damage and cell cycle examination, the following drug concentrations were selected: For A2780—6 μM carboplatin, 1 μM olaparib, and 0.5 μM niraparib; For OVCAR-3-16 μM carboplatin, 0.5 μM olaparib, and 0.8 μM niraparib; For A2780cis—36 μM carboplatin, 10 μM olaparib, and 1.5 μM niraparib. Treated cells were fixed with 70% ice-cold ethanol for 30 min, pelleted, washed, and stained for 30 min at 37° C. in phosphate buffered saline (PBS) containing 1% FBS 5 μg/ml 7-AAD (BioLegend), 200 μg/ml RNase, 1 mM EDTA and 0.1% Triton X-100. Data acquisition (at 665/30 nm) and analysis were done on the Cytek Northern Lights flow cytometer and the FlowJo 10.8.1 software (BD Biosciences), respectively.

[9] = TTFields 200 kHz, 1 V/cm RMS, 72 h
[10] = treatment alone, all cell lines (A2780, OVCAR-3, A2780cis), relative to control
[11] = Bliss independence, TTFields plus drug

Row | Structure (SMILES) | type of TTFields-drug interaction (measured vs calculated additive curve) [1, 9] | type of TTFields-drug interaction, overall effect (cell count and clonogenic effect) [1, 9] | effect of TTFields on the drug-induced overall effect (cell count x colony formation) [1] | effect of TTFields on the drug-induced effect, cell count [1] | effect of TTFields on the drug-induced overall effect (cell count x colony formation) [2] | effect of TTFields on the drug-induced effect, cell count [2] | sensitivity to drug (cell count dose response) ([2]; 72 h) | effect of TTFields on the drug-induced overall effect (cell count x colony formation) [3] | effect of TTFields on the drug-induced effect, cell count [3] | sensitivity to drug (cell count dose response) ([3]; drug alone) | effect of TTFields on sensitivity to / effect of the drug [3] | type of TTFields-drug interaction (measured vs calculated additive curve) [3] | effect of TTFields on the apoptotic effect / apoptotic cell fraction [4] | effect of TTFields on the apoptotic effect / apoptotic cell fraction [5] | effect of TTFields on the apoptotic effect / apoptotic cell fraction [6] | levels of γH2AX foci, monotherapy [7, 10] | cell cycle arrest, drug alone [8] | other results
1 | NC(=O)c1cccc2cn(-c3ccc([C@@H]4CCCNC4)cc3)nc12 [niraparib] | high synergy | synergistically | significantly augmented | significantly augmented | significantly augmented | significantly augmented | highest sensitivity | significantly augmented | significantly augmented | highest resistance | increased the sensitivity | tendency to synergy | enhanced; also recorded: elevation | enhanced; also recorded: elevation | elevation | mild elevation | induced G2/M arrest | type of TTFields-drug interaction, cytotoxic effect (cell count) [1]: synergistically; level of TTFields-drug synergy ([1]; A2780 relative to A2780cis cells, by Ii): higher; type of TTFields-drug interaction, cytotoxic effect (cell count) [2]: additively; type of TTFields-drug interaction (measured vs calculated additive curve) ([2]; HRD cells, TTFields 200 kHz, 1 V/cm RMS, 72 h): additively; type of TTFields-drug interaction, overall effect (cell count and clonogenic effect) [2, 9]: additive
2 | N.N.O=C([O-])C1(C(=O)[O-])CCC1.[Pt+2] [carboplatin] | tendency to synergism; also recorded: additive; also recorded: tendency to synergy | Signs of synergy | significantly elevated | significantly amplified | significantly elevated | significantly amplified | highest sensitivity | significantly elevated | significantly amplified | lower response; also recorded: highest resistance | increased the sensitivity | synergistic; also recorded: synergistically; also recorded: tendency to synergy | enhanced; also recorded: increases | enhanced; also recorded: increases | increases | more pronounced effect | induced G2/M arrest | interaction index (Ii), 95% confidence interval [1, 11]: smaller than 1; type of TTFields-drug interaction, cytotoxic effect (cell count) ([1]; TTFields 200 kHz, 1 V/cm RMS, 72 h, BRCA wt): Signs of synergy; interaction index (Ii), 95% confidence interval [2, 11]: > 1; level of TTFields-drug synergy ([3]; A2780cis relative to A2780 cells, by Ii): higher levels; interaction index (Ii), 95% confidence interval [3, 11]: smaller than 1; decreased sensitivity of A2780cis cells compared with wild type A2780 cells ([3]; drug alone, titration): 5 fold; levels of γH2AX foci, monotherapy ([7]; drug alone, OVCAR-3 cells): especially dramatic

Reference: patent US20250108213A1, “COMPOSITIONS AND METHODS FOR ENHANCING THE EFFECT OF PLATINUM-BASED SYSTEMIC THERAPY” (NOVOCURE GMBH, priority 2023, published 2025)
